Reference: ChEMBL document CHEMBL1201862, “PubChem BioAssay data set” (2004)
Active and inactive are the calls of the source.

Experiments:
[1] = Trypanosoma cruzi growth suppression in host cells – NIH3T3 host cells, beta-gal luminescence, confirmation (AID 2044); type: functional, cell-based;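 note: intracellular parasites grown in NIH/3T3 mouse fibroblasts as host cells; luminescent beta-galactosidase reporter signal from transgenic T. cruzi replicating inside host cells; inhibitors lower the luminescence signal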
[2] = NIH3T3 cell viability loss – ATP luminescence, mouse fibroblasts, counter-screen, dose response (AID 2010); type: functional, cell-based;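 note: cells exposed to compound for about 90 hours before reading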
[3] = molecular target: T1, Mannose-6-phosphate isomerase (Homo sapiens, UniProt P34949); experiment: MPI inhibition at elevated mannose 6-phosphate – biochemical, fluorescence intensity, high mannose 6-phosphate, primary screen (AID 1220)
T1 sequence (P34949 whole entry): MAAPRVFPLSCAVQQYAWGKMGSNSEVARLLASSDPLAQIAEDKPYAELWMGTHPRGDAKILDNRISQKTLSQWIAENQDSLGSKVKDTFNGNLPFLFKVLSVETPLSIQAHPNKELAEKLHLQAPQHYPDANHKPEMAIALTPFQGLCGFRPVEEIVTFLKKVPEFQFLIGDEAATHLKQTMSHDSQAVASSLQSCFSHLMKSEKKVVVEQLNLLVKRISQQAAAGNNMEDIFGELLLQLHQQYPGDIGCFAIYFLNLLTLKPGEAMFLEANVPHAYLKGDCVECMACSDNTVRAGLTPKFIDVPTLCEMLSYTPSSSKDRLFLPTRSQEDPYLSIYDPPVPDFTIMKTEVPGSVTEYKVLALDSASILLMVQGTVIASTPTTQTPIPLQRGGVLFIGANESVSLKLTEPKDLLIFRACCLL

[4] = luciferase reporter signal suppression in cells – H4 neuroglioma cells, luminescence, dose response (AID 1990); type: functional, cell-based
[5] = luciferase reporter signal reduction – luminescence, H4-C neuroglioblastoma cells, dose response (AID 2458); type: functional, cell-based;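 note: H4 neuroglioblastoma cells stably carrying a luciferase reporter gene fusion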
[6] = cells; type: functional, cell-based
[7] = Luminescence Cell-Based Dose Response HTS to Identify Inhibitors of 5'UTR Stem-Loop Driven Prion Protein mRNA Translation in H4 Neuroglioblastoma Cells. [Related pubchem assays: 1827 (Project Summary), 1813 (Primary HTS)]; type: functional
[8] = alpha-synuclein stem-loop luciferase translation blockers – H4 neuroglioma cells, luminescence, confirmation (AID 1988); type: functional, cell-based
[9] = alpha-synuclein stem-loop translation blockers – luminescence, H4 neuroglioblastoma cells, dose confirmation, confirmation (AID 2454); type: functional, cell-based;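 note: H4 neuroglioblastoma cells carrying an alpha-synuclein 5'UTR luciferase reporter; potency for inhibition of the luciferase signal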
[10] = molecular target: Protein Tat (Human immunodeficiency virus type 1 group M subtype B (isolate HXB2)(HIV-1), UniProt P04608); type: functional;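 note: tat binding to TAR RNA read out by fluorescence polarization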
Sequence of Protein Tat (P04608 whole entry): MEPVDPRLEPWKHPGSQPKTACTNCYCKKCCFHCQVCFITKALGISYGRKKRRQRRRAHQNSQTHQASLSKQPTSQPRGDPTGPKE

[11] = molecular target: T2, Short transient receptor potential channel 4 (Mus musculus, UniProt Q9QUQ5); experiment: block of DAMGO-driven TRPC4 calcium entry – cell-based, HEK293 TRPC4/mu-opioid, Fluo-4 calcium, dose response (AID 434942); type: functional;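 note: potency of inhibitors blocking the TRPC4 calcium response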
T2 sequence (Q9QUQ5 whole entry): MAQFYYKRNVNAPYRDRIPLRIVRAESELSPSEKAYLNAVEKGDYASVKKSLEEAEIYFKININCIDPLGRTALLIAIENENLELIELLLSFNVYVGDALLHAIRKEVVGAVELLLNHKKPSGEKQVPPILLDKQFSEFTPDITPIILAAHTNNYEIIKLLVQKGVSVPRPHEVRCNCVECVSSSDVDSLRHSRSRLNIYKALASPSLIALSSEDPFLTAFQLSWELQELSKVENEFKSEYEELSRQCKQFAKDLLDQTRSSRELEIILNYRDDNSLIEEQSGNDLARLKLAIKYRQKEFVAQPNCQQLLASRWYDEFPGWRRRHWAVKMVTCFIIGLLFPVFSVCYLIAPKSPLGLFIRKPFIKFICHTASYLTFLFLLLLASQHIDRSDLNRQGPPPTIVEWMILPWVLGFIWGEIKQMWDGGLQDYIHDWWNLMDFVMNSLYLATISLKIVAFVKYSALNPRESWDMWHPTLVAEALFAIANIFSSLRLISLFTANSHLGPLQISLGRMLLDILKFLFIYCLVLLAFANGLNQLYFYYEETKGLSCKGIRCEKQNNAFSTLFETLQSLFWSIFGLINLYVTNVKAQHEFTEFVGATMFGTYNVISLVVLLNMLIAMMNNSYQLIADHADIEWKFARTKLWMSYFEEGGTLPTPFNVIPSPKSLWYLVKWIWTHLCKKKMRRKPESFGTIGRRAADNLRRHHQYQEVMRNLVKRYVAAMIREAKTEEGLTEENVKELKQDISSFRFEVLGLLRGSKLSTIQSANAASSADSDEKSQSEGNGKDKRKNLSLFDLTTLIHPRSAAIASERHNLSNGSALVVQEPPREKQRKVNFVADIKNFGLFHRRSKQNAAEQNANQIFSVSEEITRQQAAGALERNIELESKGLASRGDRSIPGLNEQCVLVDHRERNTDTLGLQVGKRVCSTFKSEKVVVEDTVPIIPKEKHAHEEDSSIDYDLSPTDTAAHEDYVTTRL

[12] = cells
[13] = molecular target: Large T antigen (Simian virus 40, UniProt P03070); type: functional, Betapolyomavirus macacae;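 note: Confirmatory-stage PubChem screen for compounds that inhibit SV40 T antigen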
Sequence of Large T antigen (P03070 whole entry): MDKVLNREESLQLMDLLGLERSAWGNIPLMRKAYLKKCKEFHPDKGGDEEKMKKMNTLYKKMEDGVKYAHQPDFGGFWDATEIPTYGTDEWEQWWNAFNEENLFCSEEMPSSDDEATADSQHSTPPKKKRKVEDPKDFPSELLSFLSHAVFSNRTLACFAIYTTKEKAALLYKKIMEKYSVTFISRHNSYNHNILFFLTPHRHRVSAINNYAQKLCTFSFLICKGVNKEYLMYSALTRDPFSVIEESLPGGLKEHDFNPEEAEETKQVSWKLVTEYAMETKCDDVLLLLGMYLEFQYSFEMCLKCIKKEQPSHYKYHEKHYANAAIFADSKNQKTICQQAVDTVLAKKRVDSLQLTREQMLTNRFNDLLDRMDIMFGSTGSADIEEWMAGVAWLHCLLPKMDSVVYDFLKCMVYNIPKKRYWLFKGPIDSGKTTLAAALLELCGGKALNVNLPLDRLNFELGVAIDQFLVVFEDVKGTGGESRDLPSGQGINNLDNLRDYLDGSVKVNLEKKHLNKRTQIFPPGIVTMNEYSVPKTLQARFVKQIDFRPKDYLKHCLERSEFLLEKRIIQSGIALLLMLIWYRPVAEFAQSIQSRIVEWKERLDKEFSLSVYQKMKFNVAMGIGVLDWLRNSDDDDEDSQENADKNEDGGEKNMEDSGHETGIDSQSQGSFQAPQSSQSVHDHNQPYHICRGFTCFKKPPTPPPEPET

[14] = molecular target: Bifunctional protein GlmU (Mycobacterium tuberculosis, UniProt P9WMN3); experiment: Inhibitors of Mycobacterial Glucosamine-1-phosphate acetyl transferase (GlmU). Secondary screen.; set-up: species or system Mycobacterium tuberculosis H37Rv
Sequence of Bifunctional protein GlmU (P9WMN3 whole entry): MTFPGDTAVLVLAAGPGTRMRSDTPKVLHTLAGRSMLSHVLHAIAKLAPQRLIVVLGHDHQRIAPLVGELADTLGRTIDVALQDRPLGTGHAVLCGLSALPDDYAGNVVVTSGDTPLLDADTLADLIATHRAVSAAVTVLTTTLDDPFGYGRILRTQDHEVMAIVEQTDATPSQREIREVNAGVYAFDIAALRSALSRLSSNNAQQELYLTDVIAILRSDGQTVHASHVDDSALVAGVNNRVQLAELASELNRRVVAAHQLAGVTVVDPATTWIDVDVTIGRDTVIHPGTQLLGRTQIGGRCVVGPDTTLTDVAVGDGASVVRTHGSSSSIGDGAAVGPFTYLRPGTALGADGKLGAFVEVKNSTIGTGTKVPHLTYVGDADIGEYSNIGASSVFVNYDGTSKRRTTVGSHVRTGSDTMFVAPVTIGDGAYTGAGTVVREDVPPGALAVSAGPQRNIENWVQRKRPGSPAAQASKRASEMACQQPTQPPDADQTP

[15] = molecular target: Induced myeloid leukemia cell differentiation protein Mcl-1 (Homo sapiens, UniProt Q07820); type: functional
Sequence of Induced myeloid leukemia cell differentiation protein Mcl-1 (Q07820 whole entry): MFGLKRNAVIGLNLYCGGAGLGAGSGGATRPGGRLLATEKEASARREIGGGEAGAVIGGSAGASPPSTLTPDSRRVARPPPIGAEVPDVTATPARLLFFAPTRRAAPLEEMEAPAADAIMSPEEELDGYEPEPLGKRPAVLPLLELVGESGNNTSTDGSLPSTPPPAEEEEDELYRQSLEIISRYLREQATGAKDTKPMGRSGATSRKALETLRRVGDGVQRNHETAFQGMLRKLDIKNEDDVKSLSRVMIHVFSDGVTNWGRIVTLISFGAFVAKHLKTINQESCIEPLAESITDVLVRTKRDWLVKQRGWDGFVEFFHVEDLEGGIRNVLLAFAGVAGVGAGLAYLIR

[16] = THP-1 cell cytotoxicity, dose response, cytotoxicity control for non-replicating M. tuberculosis project (AID 489025); type: functional
[17] = viability loss in THP-1 monocytes – THP-1 cells, cytotoxicity control for Vif-APOBEC3G degradation inhibitor project, dose response (AID 1117359); type: functional; settings: THP-1
[18] = cells; type: functional
[19] = molecular target: T3, Replicative DNA helicase DnaB (Mycobacterium tuberculosis, UniProt P9WMR3); experiment: DnaB intein splicing inhibitors, dose response, biochemical, cell-free fluorescence (AID 449749); type: functional
T3 sequence (P9WMR3 whole entry): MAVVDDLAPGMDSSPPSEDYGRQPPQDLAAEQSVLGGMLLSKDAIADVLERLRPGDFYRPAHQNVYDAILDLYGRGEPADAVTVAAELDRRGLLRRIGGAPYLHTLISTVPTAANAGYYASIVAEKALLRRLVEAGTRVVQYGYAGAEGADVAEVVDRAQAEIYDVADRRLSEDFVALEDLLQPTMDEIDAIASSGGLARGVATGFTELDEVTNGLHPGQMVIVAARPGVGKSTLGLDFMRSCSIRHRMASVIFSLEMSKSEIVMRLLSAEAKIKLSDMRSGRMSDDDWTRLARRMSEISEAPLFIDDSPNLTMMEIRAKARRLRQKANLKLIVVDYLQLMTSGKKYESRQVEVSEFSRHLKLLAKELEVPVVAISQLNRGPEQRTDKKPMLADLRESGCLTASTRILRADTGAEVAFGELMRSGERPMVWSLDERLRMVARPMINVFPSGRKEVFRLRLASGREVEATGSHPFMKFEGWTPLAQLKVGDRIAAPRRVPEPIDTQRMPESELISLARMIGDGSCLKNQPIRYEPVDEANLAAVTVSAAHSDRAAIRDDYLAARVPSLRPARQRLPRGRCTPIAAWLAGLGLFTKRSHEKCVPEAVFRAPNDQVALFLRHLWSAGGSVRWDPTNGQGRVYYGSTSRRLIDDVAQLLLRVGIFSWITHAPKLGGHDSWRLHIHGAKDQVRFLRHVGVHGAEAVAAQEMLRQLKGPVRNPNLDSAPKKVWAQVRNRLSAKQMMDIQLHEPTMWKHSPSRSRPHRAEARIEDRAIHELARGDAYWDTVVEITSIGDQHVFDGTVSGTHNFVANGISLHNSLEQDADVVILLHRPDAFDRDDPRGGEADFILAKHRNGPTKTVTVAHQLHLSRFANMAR

[20] = molecular target: T4, Protein RecA (Mycobacterium tuberculosis, UniProt P9WHJ3); experiment: Fluorescence Cell-Free Homogeneous Dose Retest to Identify Inhibitors of RecA-Intein Splicing Activity. [Related pubchem assays (depositor defined):AID2097, AID2223, AID489010, AID492950]; type: functional
T4 sequence (P9WHJ3 whole entry): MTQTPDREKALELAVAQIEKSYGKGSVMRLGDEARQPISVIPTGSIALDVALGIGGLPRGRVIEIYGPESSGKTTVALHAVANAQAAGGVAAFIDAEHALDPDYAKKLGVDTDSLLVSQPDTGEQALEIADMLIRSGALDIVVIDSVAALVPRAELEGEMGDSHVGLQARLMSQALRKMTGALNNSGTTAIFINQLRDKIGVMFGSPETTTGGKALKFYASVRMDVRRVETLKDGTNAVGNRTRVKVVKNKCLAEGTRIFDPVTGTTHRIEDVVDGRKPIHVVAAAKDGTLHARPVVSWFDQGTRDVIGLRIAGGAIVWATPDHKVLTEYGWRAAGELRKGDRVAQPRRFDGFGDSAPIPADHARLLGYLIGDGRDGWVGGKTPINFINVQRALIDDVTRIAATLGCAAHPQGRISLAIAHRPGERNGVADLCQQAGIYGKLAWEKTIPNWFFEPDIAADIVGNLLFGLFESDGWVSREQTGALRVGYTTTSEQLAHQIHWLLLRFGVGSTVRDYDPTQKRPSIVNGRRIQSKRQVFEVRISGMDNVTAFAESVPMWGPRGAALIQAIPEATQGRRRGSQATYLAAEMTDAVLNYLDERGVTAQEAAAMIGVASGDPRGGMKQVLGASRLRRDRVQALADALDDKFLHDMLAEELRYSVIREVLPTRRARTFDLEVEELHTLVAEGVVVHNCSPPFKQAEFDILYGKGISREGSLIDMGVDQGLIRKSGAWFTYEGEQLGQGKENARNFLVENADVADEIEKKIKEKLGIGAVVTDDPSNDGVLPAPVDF

[21] = molecular target: Genome polyprotein (dengue virus type 2, UniProt P29990); experiment: flavivirus cap methylation enzyme inhibition – biochemical, confirmation dose response, primary screen (AID 588689); type: functional
Sequence of Genome polyprotein (P29990 2492-3391 limits assumed): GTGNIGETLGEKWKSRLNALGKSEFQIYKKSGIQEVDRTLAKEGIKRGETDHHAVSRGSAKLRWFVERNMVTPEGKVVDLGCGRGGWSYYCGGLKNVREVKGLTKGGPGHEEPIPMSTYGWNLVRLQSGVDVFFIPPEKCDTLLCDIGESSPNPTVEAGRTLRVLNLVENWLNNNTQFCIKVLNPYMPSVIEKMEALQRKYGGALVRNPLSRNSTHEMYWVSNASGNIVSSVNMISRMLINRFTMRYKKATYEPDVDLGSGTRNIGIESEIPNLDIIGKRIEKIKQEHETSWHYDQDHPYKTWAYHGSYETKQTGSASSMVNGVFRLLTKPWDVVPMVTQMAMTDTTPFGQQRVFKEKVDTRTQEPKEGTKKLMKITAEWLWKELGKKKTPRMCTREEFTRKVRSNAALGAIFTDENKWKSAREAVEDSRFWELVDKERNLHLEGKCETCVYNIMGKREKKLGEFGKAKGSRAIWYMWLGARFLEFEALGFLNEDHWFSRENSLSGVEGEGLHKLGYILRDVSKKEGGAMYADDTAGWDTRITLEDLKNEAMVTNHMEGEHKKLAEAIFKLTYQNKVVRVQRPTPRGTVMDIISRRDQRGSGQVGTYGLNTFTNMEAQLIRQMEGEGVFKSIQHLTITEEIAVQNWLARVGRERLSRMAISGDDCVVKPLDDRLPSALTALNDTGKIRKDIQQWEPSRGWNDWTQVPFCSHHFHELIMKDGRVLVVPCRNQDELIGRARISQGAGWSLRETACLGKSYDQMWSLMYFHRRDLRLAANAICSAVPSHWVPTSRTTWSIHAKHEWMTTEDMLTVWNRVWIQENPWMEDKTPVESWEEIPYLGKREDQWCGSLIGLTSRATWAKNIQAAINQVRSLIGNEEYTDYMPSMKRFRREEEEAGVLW

[22] = HIV-1 Vif–A3G interaction blockers – biochemical, TR-FRET, GST-Vif 1-94, biotin-A3G peptide, dose response retest, primary screen (AID 1117319); type: functional;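 note: TR-FRET signal of purified GST-Vif binding a biotinylated A3G peptide; inhibitors lower the FRET signal by blocking Vif and A3G binding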
[23] = rise of 2N DNA cells, HeLa – IC50, dose response (AID 1117349); type: functional, cell-based
[24] = CellTiter-Glo luminescence survival assay, SW480 colon tumor line, concentration-response curve, half-maximal inhibitory concentration (AID 1117338); type: functional
[25] = RKO cell viability reduction, dose response, CellTiter-Glo luminescence (AID 1117322); type: functional
[26] = cytotoxicity toward HCT116 cells – cell-based, CellTiter-Glo luminescence, IC50, dose response (AID 1117332); type: functional; settings: HCT-116
[27] = SNU-C1 cell viability reduction, dose response, CellTiter-Glo luminescence (AID 1117323); type: functional, cell-based
[28] = cytotoxicity toward Colo320 cells – cell-based, CellTiter-Glo luminescence, IC50, dose response (AID 1117334); type: functional; settings: COLO 320
[29] = rise of 4N DNA cells, HeLa – IC50, dose response (AID 1117351); type: functional, cell-based
[30] = cytotoxicity toward HT-29 cells – cell-based, CellTiter-Glo luminescence, IC50, dose response (AID 1117330); type: functional
[31] = Reduced DLD-1 viability, concentration-response, CellTiter-Glo luminescence (AID 1117352); type: functional
[32] = HCT116 cell viability decrease, GSK3B pretreatment – CellTiter-Glo, IC50, dose response (AID 1117339); type: functional; settings: HCT-116

## COc1ccccc1CNc1ccc(N2CCCCC2)cc1
[1]
  EC50: 3170 nM (active)
[2]
  EC50: > 60000 nM (not active)
[3]
  IC50: > 50000 nM (not active)

## CCC(C)Cn1c(O)cc2nn(-c3nc4ccccc4s3)c(=O)c-2c1C (stereo not drawn)
[4]
  EC50: < 100 nM (active)
[5]
  EC50: 58 nM (active)
[6]
  EC50: 114 nM (active)
[7]
  EC50: 165 nM (active)
[8]
  EC50: < 100 nM (active)
[9]
  EC50: 72 nM (active)
[10]
  IC50: > 50000 nM (active)

## Clc1cccc(C[n+]2cc(-c3ccccc3)n3c2CCC3)c1
[1]
  EC50: < 100 nM (active)
[2]
  EC50: > 60000 nM (not active)
[11]
  EC50: 944 nM (active)
[12]
  EC50: 7 nM (active)

## O=C1NC(=S)S/C1=C\c1ccc(SCc2ccco2)o1
[13]
  IC50: 6010 nM (active)
[14]
  IC50: 17700 nM (active)
[15]
  IC50: 1530 nM (active)
[16]
  CC50: > 40000 nM (active)
[17]
  CC50: > 40000 nM (active)

## COc1cccc(OCCNC(=O)c2cc([N+](=O)[O-])cc([N+](=O)[O-])c2)c1
[1]
  EC50: < 100 nM (active)
[2]
  EC50: > 60000 nM (not active)
[18]
  IC50: 360 nM (active)
[12]
  EC50: 86 nM (active)

## O=C(O)c1cccc(Nc2cc(Cl)c3nonc3c2[N+](=O)[O-])c1
[14]
  IC50: 131000 nM (active)
[19]
  AC50: 2050 nM (active)
[20]
  EC50: 2520 nM (active)
[21]
  IC50: 10700 nM (active)

## COc1ccccc1C1=Nc2cccc3cccc(c23)N1
[1]
  EC50: 6830 nM (active)
[2]
  EC50: > 30000 nM (not active)
[15]
  IC50: < 400 nM (not active)
[10]
  IC50: > 100000 nM (inconclusive)
[17]
  CC50: > 40000 nM (active)
[22]
  IC50: > 63300 nM (active)

## O=C(CCl)c1ccc(Cl)cc1Cl
[23]
  IC50: 514 nM (active)
[24]
  IC50: 1250 nM (active)
[25]
  IC50: 4300 nM (active)
[26]
  IC50: 6300 nM (inactive)
[27]
  IC50: 2980 nM (active)
[28]
  IC50: 530 nM (active)
[29]
  IC50: > 10000 nM (inactive)
[30]
  IC50: 8520 nM (inactive)
[31]
  IC50: 2070 nM (active)
[32]
  IC50: 1100 nM (active)

## O=[N+]([O-])c1ccc(Oc2ccc(N=C=S)cc2)cc1 [NITROSCANATE]
[23]
  IC50: > 10000 nM (inactive)
[24]
  IC50: 1630 nM (active)
[25]
  IC50: 2340 nM (active)
[26]
  IC50: 2770 nM (active)
[27]
  IC50: 4330 nM (active)
[28]
  IC50: 1460 nM (active)
[29]
  IC50: > 10000 nM (inactive)
[30]
  IC50: 1070 nM (active)
[31]
  IC50: 2100 nM (active)
[32]
  IC50: 1470 nM (active)
